Test results: US12655125B2 (SIRONAX LTD., priority 2020, dated 2026)

Test system: HT-29 cells
Experiment: HT29 Cells 0FBS Assay In Vitro (TNF-α/SMAC mimetic/zVAD-FMK induced necroptosis, CellTiter-Glo cell viability)
Assay type: cell-based
Conditions: Homo sapiens; HT-29 cells, FBS free medium, TNF-α (10 ng/ml), SMAC mimetic (6 uM), zVAD-FMK (10 μM), 20 hours; geometric mean EC50; read-out: Cell activity (EC50) of Compounds 117-281
How it was run: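 Viability was measured by ATP luminescence (CellTiter-Glo) after 20 h at 37° C of compound exposure in 10-point, 1:3 dilutions. Necroptosis in FBS-free HT-29 cultures was driven by a TNF-α (10 ng/ml), SMAC mimetic (6 μM) and zVAD-FMK (10 μM) cocktail. EC50 values are geometric means from duplicate curves.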

SMILES	EC50 [nM]
Cc1nn(-c2cc(OC3CN(C(=O)N4N=CC[C@H]4c4cc(F)cc(F)c4)C3)c(F)cn2)c(C)c1C(=O)NC1COC1 [compound 217, (S)-1-(4-((1-(5-(3,5-difluorophenyl)-4,5-dihydro-1H-pyrazole-1-carbonyl)azetidin-3-yl)oxy)-5-fluoropyridin-2-yl)-3,5-dimethyl-N-(oxetan-3-yl)-1H-pyrazole-4-carboxamide]	0.1 to 100
Cc1c(-c2cc(OC3CN(C(=O)N4N=CC[C@H]4c4cc(F)cc(F)c4)C3)c(F)cn2)nn(C)c1N [compound 218, (S)-(3-((2-(5-amino-1,4-dimethyl-1H-pyrazol-3-yl)-5-fluoropyridin-4-yl)oxy)azetidin-1-yl)(5-(3,5-difluorophenyl)-4,5-dihydro-1H-pyrazol-1-yl)methanone]	0.1 to 100
Cc1cn(C)nc1-c1cc(OC2CN(C(=O)N3N=CC[C@H]3c3cc(F)cc(F)c3)C2)c(F)cn1 [compound 219, (S)-(5-(3,5-difluorophenyl)-4,5-dihydro-1H-pyrazol-1-yl)(3-((2-(1,4-dimethyl-1H-pyrazol-3-yl)-5-fluoropyridin-4-yl)oxy)azetidin-1-yl)methanone]	0.1 to 100
Cc1nn(-c2cc(OC3CN(C(=O)N4N=CC[C@H]4c4cc(F)cc(F)c4)C3)c(F)cn2)c(C)c1S(N)(=O)=O [compound 220, (S)-1-(4-((1-(5-(3,5-difluorophenyl)-4,5-dihydro-1H-pyrazole-1-carbonyl)azetidin-3-yl)oxy)-5-fluoropyridin-2-yl)-3,5-dimethyl-1H-pyrazole-4-sulfonamide]	0.1 to 100
Cc1cc(C)n(-c2cc(OC3CN(C(=O)N4N=CC[C@H]4c4cc(F)cc(F)c4)C3)c(F)cn2)n1 [compound 221, (S)-(5-(3,5-difluorophenyl)-4,5-dihydro-1H-pyrazol-1-yl)(3-((2-(3,5-dimethyl-1H-pyrazol-1-yl)-5-fluoropyridin-4-yl)oxy)azetidin-1-yl)methanone]	0.1 to 100
Cc1nn(-c2cc(OC3CN(C(=O)N4N=CC[C@H]4c4cc(F)cc(F)c4)C3)c(F)cn2)c(C)c1CC(=O)N1CCC1 [compound 222, (S)-1-(azetidin-1-yl)-2-(1-(4-((1-(5-(3,5-difluorophenyl)-4,5-dihydro-1H-pyrazole-1-carbonyl)azetidin-3-yl)oxy)-5-fluoropyridin-2-yl)-3,5-dimethyl-1H-pyrazol-4-yl)ethan-1-one]	0.1 to 100
Cc1nn(-c2cc(OC3CN(C(=O)N4N=CC[C@H]4c4cc(F)cc(F)c4)C3)c(F)cn2)c(C)c1CC(=O)NCCO [compound 223, (S)-2-(1-(4-((1-(5-(3,5-difluorophenyl)-4,5-dihydro-1H-pyrazole-1-carbonyl)azetidin-3-yl)oxy)-5-fluoropyridin-2-yl)-3,5-dimethyl-1H-pyrazol-4-yl)-N-(2-hydroxyethyl)acetamide]	0.1 to 100
Cc1nn(-c2cc(OC3CN(C(=O)N4N=CC[C@H]4c4cc(F)cc(F)c4)C3)c(F)cn2)c(C)c1CC(=O)N1CCOCC1 [compound 224, (S)-2-(1-(4-((1-(5-(3,5-difluorophenyl)-4,5-dihydro-1H-pyrazole-1-carbonyl)azetidin-3-yl)oxy)-5-fluoropyridin-2-yl)-3,5-dimethyl-1H-pyrazol-4-yl)-1-morpholinoethan-1-one]	0.1 to 100
Cc1nn(-c2cc(OC3CN(C(=O)N4N=CC[C@H]4c4cc(F)cc(F)c4)C3)c(F)cn2)c(C)c1CC(N)=O [compound 225, (S)-2-(1-(4-((1-(5-(3,5-difluorophenyl)-4,5-dihydro-1H-pyrazole-1-carbonyl)azetidin-3-yl)oxy)-5-fluoropyridin-2-yl)-3,5-dimethyl-1H-pyrazol-4-yl)acetamide]	0.1 to 100
CNC(=O)Cc1c(C)nn(-c2cc(OC3CN(C(=O)N4N=CC[C@H]4c4cc(F)cc(F)c4)C3)c(F)cn2)c1C [compound 226, (S)-2-(1-(4-((1-(5-(3,5-difluorophenyl)-4,5-dihydro-1H-pyrazole-1-carbonyl)azetidin-3-yl)oxy)-5-fluoropyridin-2-yl)-3,5-dimethyl-1H-pyrazol-4-yl)-N-methylacetamide]	0.1 to 100
Cc1nn(-c2cc(OC3CN(C(=O)N4N=CC[C@H]4c4cc(F)cc(F)c4)C3)c(F)cn2)c(C)c1SCc1ccccc1 [compound 227, (S)-(3-((2-(4-(benzylthio)-3,5-dimethyl-1H-pyrazol-1-yl)-5-fluoropyridin-4-yl)oxy)azetidin-1-yl)(5-(3,5-difluorophenyl)-4,5-dihydro-1H-pyrazol-1-yl)methanone]	0.1 to 100
Cc1onc(N)c1-c1cc(OC2CN(C(=O)N3N=CC[C@H]3c3cc(F)cc(F)c3)C2)c(F)cn1 [compound 228, (S)-(3-((2-(3-amino-5-methylisoxazol-4-yl)-5-fluoropyridin-4-yl)oxy)azetidin-1-yl)(5-(3,5-difluorophenyl)-4,5-dihydro-1H-pyrazol-1-yl)methanone]	0.1 to 100
Cc1c(-c2cc(OC3CN(C(=O)N4N=CC[C@H]4c4cc(F)cc(F)c4)C3)c(F)cn2)nn(C)c1C(N)=O [compound 229, (S)-3-(4-((1-(5-(3,5-difluorophenyl)-4,5-dihydro-1H-pyrazole-1-carbonyl)azetidin-3-yl)oxy)-5-fluoropyridin-2-yl)-1,4-dimethyl-1H-pyrazole-5-carboxamide]	0.1 to 100
CNS(=O)(=O)c1c(C)nn(-c2cc(OC3CN(C(=O)N4N=CC[C@H]4c4cc(F)cc(F)c4)C3)c(F)cn2)c1C [compound 230, (S)-1-(4-((1-(5-(3,5-difluorophenyl)-4,5-dihydro-1H-pyrazole-1-carbonyl)azetidin-3-yl)oxy)-5-fluoropyridin-2-yl)-N,3,5-trimethyl-1H-pyrazole-4-sulfonamide]	0.1 to 100
CCNC(=O)c1c(C)nn(-c2cc(OC3CN(C(=O)N4N=CC[C@H]4c4cc(F)cc(F)c4)C3)c(F)cn2)c1C [compound 231, (S)-1-(4-((1-(5-(3,5-difluorophenyl)-4,5-dihydro-1H-pyrazole-1-carbonyl)azetidin-3-yl)oxy)-5-fluoropyridin-2-yl)-N-ethyl-3,5-dimethyl-1H-pyrazole-4-carboxamide]	0.1 to 100
Cc1nn(-c2cc(OC3CN(C(=O)N4N=CC[C@H]4c4cc(F)cc(F)c4)C3)c(F)cn2)c(C)c1C(=O)NC1CC1 [compound 232, (S)—N-cyclopropyl-1-(4-((1-(5-(3,5-difluorophenyl)-4,5-dihydro-1H-pyrazole-1-carbonyl)azetidin-3-yl)oxy)-5-fluoropyridin-2-yl)-3,5-dimethyl-1H-pyrazole-4-carboxamide]	0.1 to 100
Cc1nn(-c2cc(OC3CN(C(=O)N4N=CC[C@H]4c4cc(F)cc(F)c4)C3)c(F)cn2)c(C)c1C(=O)O [compound 233, (S)-1-(4-((1-(5-(3,5-difluorophenyl)-4,5-dihydro-1H-pyrazole-1-carbonyl)azetidin-3-yl)oxy)-5-fluoropyridin-2-yl)-3,5-dimethyl-1H-pyrazole-4-carboxylic acid]	0.1 to 100
Cc1nn(-c2cc(OC3CN(C(=O)N4N=CCC4c4cc(F)cc(F)c4)C3)c(F)cn2)c(C)c1C(N)=O (stereo not drawn) [compound 234, 1-(4-((1-(5-(3,5-difluorophenyl)-4,5-dihydro-1H-pyrazole-1-carbonyl)azetidin-3-yl)oxy)-5-fluoropyridin-2-yl)-3,5-dimethyl-1H-pyrazole-4-carboxamide]	0.1 to 100
